In patent US20230339949A1, “HETEROCYCLIC SUBSTITUTED FUSED y-CARBOLINE DERIVATIVE, PREPARATION METHOD THEREFOR, INTERMEDIATE THEREOF AND USE THEREOF” (SHUJING BIOPHARMA CO., LTD, priority 2020, published 2023):
Like-named read-outs stand apart in the source and are kept apart here.

Tests used:
5-HT2A receptor = target: T1, 5-HT2A receptor (Homo sapiens, UniProt P28223); test: Functional detection experiment of 5-HT2A receptor (cultured cells), calcium influx assay; type: cell-based
T1 construct: expressed in transfected cells
T1 sequence (P28223 whole entry): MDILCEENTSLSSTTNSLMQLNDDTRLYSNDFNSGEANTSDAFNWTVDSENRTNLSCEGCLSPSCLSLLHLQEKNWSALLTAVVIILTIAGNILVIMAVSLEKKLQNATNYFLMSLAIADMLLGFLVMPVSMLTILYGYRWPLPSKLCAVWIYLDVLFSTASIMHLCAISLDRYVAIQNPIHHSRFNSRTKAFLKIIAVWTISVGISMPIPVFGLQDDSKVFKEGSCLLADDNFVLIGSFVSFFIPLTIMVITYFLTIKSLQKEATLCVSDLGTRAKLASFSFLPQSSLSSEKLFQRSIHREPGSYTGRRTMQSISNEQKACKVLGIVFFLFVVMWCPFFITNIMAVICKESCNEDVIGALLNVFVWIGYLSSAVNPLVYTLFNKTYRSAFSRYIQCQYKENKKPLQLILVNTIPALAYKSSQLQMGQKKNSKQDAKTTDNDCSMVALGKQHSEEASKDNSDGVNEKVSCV
Description: The antagonistic effect of the compound of the present disclosure on the 5-HT2A receptor was detected by a calcium influx assay at the cellular level.
• (1) Test compounds: compounds of the embodiments of the present disclosure, self-made. • (2) Control compound: serotonin hydrochloride 5-hydroxytryptamine (Sigma, H9523), Ketanserin (Targetmol, T1066). • (3) Stable cell line:
• (1) Preparation of test compounds: the compounds of the embodiments of the present disclosure were respectively dissolved in DMSO to prepare 10 mM mother liquor, and the mother liquor was stored in the nitrogen cabinet for later use. • (2) Preparation of control compound: the control compound was dissolved in DMSO to prepare 10 mM mother liquor, and the mother liquor was repackaged and stored in the refrigerator at -80° C. for later use. • (3) Preparation of 250 mM probenecid solution: 1 mL experimental buffer was added into a tube containing 77 mg powder, and the powder was dissolved by vortex oscillation. • (4) Preparation of 2× fluorescent probe solution: a bottle of fluorescent probe dry powder was taken out to balance to room temperature, and 10 mL of experimental buffer solution and 200 μL of 250 mM probenecid solution were added thereto, and the mixture was scrolled and let stand for 5 minutes to ensure complete dissolution. • (5) Experimental buffer HBSS: HBSS and HEPES were mixed evenly in a ratio of 50:1, stored in a refrigerator at 4° C., and heated at 37° C. when used.
• (1) Cells were taken out from the liquid nitrogen tank and melted in a water bath at 37° C. The surface of the cryopreservation tube was wiped with 75% alcohol and put in the biosafety cabinet. • (2) The cell suspension was transferred to a 15 mL centrifuge tube with 4 mL preheated plating medium, and the tube was centrifuged at 1000 rpm for 5 minutes. • (3) The supernatant was discarded, and 10 mL of plating medium was added and blown gently, and the mixture was transferred to a culture dish for growth. After the cells had adhered to the wall for 24 hours, they were replaced with growth medium for continuous culture.
• (1) The logarithmic growth cells was taken and the cells grew to about 85%-90%. The cells were performed the following operations: cell cleaning, digestion, termination, then transferred to a 15 mL centrifuge tube, and the tube was centrifuged at room temperature at 1000 rpm for 5 minutes. • (2) The supernatant was discarded, and a certain plating medium was added and blown gently. 20 μL of cell suspension was taken out and counted. • (3) Cells were diluted to 1×10^6 cells/mL and 20 μL of cell suspension was added to each well of the cell plate (Greiner-781946), so that the density of each well is 2×10^4 cells/well. • (4) The cell plate was incubated in an incubator with 5% CO2 at 37° C. for 16-24 hours. […]

D2S receptor = target: T2, D2S receptor (Homo sapiens, UniProt P14416); test: Functional activity test on D2S receptor, cAMP detection (Gi antagonist test); type: cell-based; conditions: cultured HEK293/D2S cells, forskolin + dopamine EC90
T2 construct: expressed in transfected cells
T2 sequence (P14416 1-414 isoform P14416-2): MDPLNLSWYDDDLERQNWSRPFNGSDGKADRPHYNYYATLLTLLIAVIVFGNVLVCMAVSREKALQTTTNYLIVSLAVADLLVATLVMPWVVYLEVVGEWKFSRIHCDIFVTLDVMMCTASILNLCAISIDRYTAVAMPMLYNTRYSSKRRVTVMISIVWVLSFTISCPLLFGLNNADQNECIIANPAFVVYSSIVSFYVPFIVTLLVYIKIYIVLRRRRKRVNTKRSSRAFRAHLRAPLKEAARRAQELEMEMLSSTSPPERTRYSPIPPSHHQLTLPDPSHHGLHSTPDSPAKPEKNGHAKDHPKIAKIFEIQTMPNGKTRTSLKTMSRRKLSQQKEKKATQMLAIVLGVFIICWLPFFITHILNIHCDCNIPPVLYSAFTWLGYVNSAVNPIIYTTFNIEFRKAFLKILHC
Description: The antagonistic effects of the compounds of the present disclosure on D2L and D2S receptors were detected by cyclic adenosine monophosphate (cAMP) detection method at cell-level.
• (1) Test compound: compounds of the embodiment of the present disclosure, self-made. • (2) Control compound: dopamine hydrochloride (Sigma, H8502), (+)-Butaclamol hydrochloride (Sigma, D033). • (3) Stable cell line:
• (1) Preparation of test compounds: the compounds of the embodiments of the present disclosure were respectively dissolved in DMSO to prepare 10 mM mother liquor, and the mother liquor was stored in the nitrogen cabinet for later use. • (2) Preparation of control compound: the control compound was dissolved in DMSO to prepare 10 mM mother liquor, and the mother liquor was repackaged and stored in the refrigerator at −80° C. for later use. • (3) IBMX was dissolved in DMSO to prepare 0.5 M stock solution and the stock solution was cryopreserved at −80° C. • (4) Forskolin was dissolved in DMSO to prepare 1 mM stock solution and the stock solution was cryopreserved at −80° C. for later use. • (5) Experimental buffer: 5× stimulation buffer was diluted to 1× with ddH2O and IBMX with a final concentration of 0.5 mM was added thereto, and the solution was mixed well for later use.
• (1) Preparation of compounds: the test compounds and positive control compound (+)-Butaclamol hydrochloride were diluted gradient using Bravo in the compound plate (Greiner-781280), and the initial concentration of working solution was 20 μM, and the working solution was diluted at 4-fold for 10 concentrations and centrifuged at 1000 rpm for 1 minute for later use. • (2) Cryopreserved D2L cells: cells was taken out from the liquid nitrogen tank and thaw in a water bath at 37° C., and the cell suspension was transferred to a centrifuge tube containing HBSS buffer, and centrifuged at 750 rpm for 5 minutes.
Cultured D2S cells: after absorbing the culture medium, the cells were washed with 3 mL PBS, sucked out, digested with 0.05% Trypsin for 3 min, terminated with equal volume of culture medium, transferred to centrifuge tube, and centrifuged at 750 rpm for 5 minutes. After absorbing the liquid, the centrifuge tube was added with a buffer solution containing HBSS and re-suspend, and centrifuged at 750 rpm for 5 minutes. • (3) The supernatant was discarded, and the precipitate was re-suspended with proper amount of experimental buffer, and 20 μL was taken for cell counting. • (4) Appropriate amount of cell suspension was removed, and the cell suspension was diluted to 2×10^5 cells/mL with experimental buffer, and the cell plate (PerkinElmer-6008280) was added with 5 μL/well cell suspension, and centrifuged at 1000 rpm for 1 minute. • (5) 5 μL/well was transferred to the cell plate with Bravo, and the cell plate was centrifuged at 1000 rpm for 1 minute, then the cell plate was closed and incubated at room temperature for 15 minutes. • (6) Forskolin was transferred to the cell plate with Tecan-D300e, and Dopamine hydrochloride with a final concentration of EC90 was transferred to the cell plate. • (7) The cell plate was centrifuged at 1000 rpm for 1 minute, then sealed and incubated at room temperature for 45 minutes. • (8) Standard curve: cAMP with the stock solution concentration of 2848 nM was diluted 4-fold continuously at 8 points according to the initial maximum concentration of 712 nM, and 10 μL/well was taken out to add to the cell plate. • (9) 10 μL/well of detection solution containing cAMP-d2 and Anti-cAMP-Cryptate (diluted with pyrolysis buffer at 1:20) was added to the cell plate, and the cell plate was centrifuged at 1000 rpm for 1 minute, and incubated at room temperature without light for 1 hour. • (10) Detection: the cell plate was centrifuged at 1000 rpm for 1 minute, and the plate was read with Envision (excitation light 340 nm, emission light 620 nm and 665 nm). […]

[1] = cultured CHO-K1/5-HT2A cells, calcium influx (FLIPR), antagonist mode vs agonist EC80, read-out: 5-HT2A IC50

| SMILES | IC50 (5-HT2A receptor) [nM] | IC50 (D2S receptor) [nM] | IC50 (5-HT2A receptor; [1]) [nM] |
| --- | --- | --- | --- |
| CN1C(=O)CN2c3c1cccc3C1(C)CN(CCCC(=O)c3ccc(F)cc3)CCC21 (stereo not drawn) [Embodiment 1, 8-(4-(4-fluorophenyl)-4-oxobutyl)-3,6b-dimethyl-6b,7,8,9,10,10a-hexahydro-1H-pyrido[3′,4′:4,5]pyrrolo[1,2,3-de]quinoxalin-2(3H)-one] | 3.72 | 95.4 |  |
| CN1C(=O)CN2c3c1cccc3[C@]1(C)CN(CCCC(=O)c3ccc(F)cc3)CC[C@H]21 [Embodiment 1-A, (6bR,10aS)-8-(4-(4-fluorophenyl)-4-oxobutyl)-3,6b-dimethyl-6b,7,8,9,10,10a-hexahydro-1H-pyrido[3′,4′:4,5]pyrrolo [1,2,3-de]quinoxalin-2(3H)-one] |  | 261 | 0.78 |
| CN1CCN2c3c(cccc31)[C@@H]1CN(CCCC(=O)c3ccc(F)cc3)CC[C@@H]12 [ITI-007, Lumateperone, reference compound] |  | 344 | 3.35 |
